Measurements from US11578074B2, “Nitrogenous heterocyclic compound, preparation method, intermediate, composition, and application” (SHANGHAI PHARMACEUTICALS HOLDING CO., LTD., priority 2017, dated 2023).

Legend:
CYP1A2 = biological target: T1, CYP1A2 (Homo sapiens, UniProt P05177); experiment: Direct inhibition (DI) of CYP1A2 in human liver microsomes; assay type: in vitro ADME; settings: probe Phenacetin, human liver microsomes 0.2 mg/mL, 10 μM compound, read-out: Direct inhibition (DI) 1A2 (Phenacetin)
T1 construct: A system of 100 μL human liver microsomes; from tissue; host or cells: human liver microsomes
T1 sequence (P05177 1-516): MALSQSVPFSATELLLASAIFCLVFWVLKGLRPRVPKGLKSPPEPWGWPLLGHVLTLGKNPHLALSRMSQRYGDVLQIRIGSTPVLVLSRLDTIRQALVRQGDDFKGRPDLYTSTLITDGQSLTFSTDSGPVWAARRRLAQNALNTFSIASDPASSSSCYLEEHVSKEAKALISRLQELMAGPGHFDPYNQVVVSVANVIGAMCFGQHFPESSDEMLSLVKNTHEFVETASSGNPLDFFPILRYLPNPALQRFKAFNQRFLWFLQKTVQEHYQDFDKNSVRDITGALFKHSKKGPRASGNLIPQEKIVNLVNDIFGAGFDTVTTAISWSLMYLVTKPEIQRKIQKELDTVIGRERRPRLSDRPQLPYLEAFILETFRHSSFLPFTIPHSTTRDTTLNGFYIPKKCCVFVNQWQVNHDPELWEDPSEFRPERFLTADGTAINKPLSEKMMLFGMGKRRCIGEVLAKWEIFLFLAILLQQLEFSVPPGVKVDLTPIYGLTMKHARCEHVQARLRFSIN
How it was run: (§1)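 Pooled human liver microsomes (0.2 mg/mL) with 1 mM NADPH and 10 μM test compound were incubated for 20 min with a mixed probe-substrate cocktail (midazolam 10 μM, testosterone 100 μM, dextromethorphan 10 μM, diclofenac 20 μM, phenacetin 100 μM, mephenytoin 100 μM). Relative enzyme activity came from metabolite formation versus DMSO control.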

CYP2C19 = biological target: T2, CYP2C19 (Homo sapiens, UniProt P33261); experiment: Direct inhibition (DI) of CYP2C19 in human liver microsomes; assay type: in vitro ADME; settings: probe Mephenytoin, human liver microsomes 0.2 mg/mL, 10 μM compound, read-out: Direct inhibition (DI) 2C19 (Mephenytoin)
T2 construct: A system of 100 μL human liver microsomes; from tissue; host or cells: human liver microsomes
How it was run: as §1

[1] = In vivo pharmacokinetics study in beagle dogs; settings: male, beagle, dog, in vivo, po, 15 mg/kg
Method: 6 male beagle dogs (purchased from Beijing Marshall Biotechnology Co., Ltd., certificate No. SCXK (Beijing) 2016-0001) were divided into 2 groups with 3 dogs in each group, and all of the animals were fasted for about 12 hours before administration. One group was orally administrated with 15 mg/kg of the final product of Embodiment 22 (deionized water was added, followed by sonication for 29 minutes and stirring for 4 minutes, and a clear pale yellow dosing solution with a concentration of 3 mg/mL was prepared); the other group was orally administrated with 15 mg/kg of Pyrotinib (deionized water was added, followed by sonication for 28 minutes and stirring for 5 minutes, and a clear yellow dosing solution with a concentration of 3 mg/mL was prepared). Blood samples were collected before administration and at 15, 30, 60, 90, 120, 150, 180, 240, 360, 480, 720 and 1440 minutes respectively after administration.
(§2) 1.0 mL of blood was collected from each animal through jugular vein puncture at each time point and heparin sodium was used for anticoagulation. The blood samples were collected and placed in labeled centrifuge tubes, and plasma was centrifuged (centrifugation conditions: 3500 rpm, 10 minutes, 2-8° C.). To 50 μL of plasma sample was added 300 μL of acetonitrile containing internal standard (Propranolol, 25 ng/mL) to precipitate the protain. After vortexing for 10 minutes and centrifuging at 6000 g for 20 minutes, 100 μL of supernatant was taken and injected into a 96-well plate. The drug concentration in plasma was determined by UPLC/MS-MS.

[2] = In vivo pharmacokinetics study in cynomolgus monkeys; settings: male, cynomolgus monkey, in vivo, po, 15 mg/kg
Method: 6 male cynomolgus monkeys (purchased from Guangxi Guidong Primate Development Experiment Co., Ltd., certificate No. SCXK (Guangxi) 2013-0057) were divided into 2 groups with 3 in each group, and all of the animals were fasted for about 12 hours before administration. One group was orally administrated with 15 mg/kg of the final product of Embodiment 22 (deionized water was added, followed by sonication for 30 minutes and stirring for 3 minutes, and a clear pale yellow dosing solution with a concentration of 3 mg/mL was prepared); one group was administrated with 15 mg/kg of Pyrotinib (deionized water was added, followed by sonication for 30 minutes and stirring for 4 minutes, and a clear yellow dosing solution with a concentration of 3 mg/mL was prepared). Blood samples were collected before administration and at 15, 30, 60, 90, 120, 150, 180, 240, 360, 480, 720 and 1440 minutes respectively after administration.
as §2

[3] = In vivo pharmacokinetic study in rats; settings: male, SD, rat, plasma, oral, 3 mg/kg intravenous, 6 mg/kg intragastric
Method: Five male SD rats, weighing 180-220 g (provided by Shanghai Xipuerbikai Experimental Animal Co., Ltd, certificate No. 20130016005408). The rats were fasted for feed but not water for 12-16 hours before the experiment. Two rats were intravenously injected with 3 mg/kg (which was dissolved by the ratio 0.9% physiological saline:PEG 400=7:3, to give a clear solution with a concentration of 1 mg/mL and a dosage volume of 3 mL/kg) of the final product of Embodiment 45. Blood samples were collected before administration and at 2, 5, 15, 30, 60, 90, 120, 240, 360, 480, 600 and 1440 minutes after administration respectively; three rats were intragastricly administrated with 6 mg/kg (0.5% CMC-Na was added and grounded into a uniform suspension with a concentration of 0.75 mg/mL and a dosage volume of 8 mL/kg) of the final product of Embodiment 45. Blood samples were collected before administration and at 5, 15, 30, 60, 90, 120, 240, 360, 480, 600 and 1440 minutes after administration respectively.
0.4 mL of blood was taken from fundus venous plexus of mice and rats into a heparinized centrifuge tube (10 μL heparin sodium solution/tube). […] After vortexing for 10 minutes and centrifuging at 6000 g and 4° C. for 10 minutes, the supernatant was diluted with mobile phase in a 96-well plate, and the drug concentration in plasma was determined by UPLC/MS-MS.

T2 sequence (P33261 whole entry): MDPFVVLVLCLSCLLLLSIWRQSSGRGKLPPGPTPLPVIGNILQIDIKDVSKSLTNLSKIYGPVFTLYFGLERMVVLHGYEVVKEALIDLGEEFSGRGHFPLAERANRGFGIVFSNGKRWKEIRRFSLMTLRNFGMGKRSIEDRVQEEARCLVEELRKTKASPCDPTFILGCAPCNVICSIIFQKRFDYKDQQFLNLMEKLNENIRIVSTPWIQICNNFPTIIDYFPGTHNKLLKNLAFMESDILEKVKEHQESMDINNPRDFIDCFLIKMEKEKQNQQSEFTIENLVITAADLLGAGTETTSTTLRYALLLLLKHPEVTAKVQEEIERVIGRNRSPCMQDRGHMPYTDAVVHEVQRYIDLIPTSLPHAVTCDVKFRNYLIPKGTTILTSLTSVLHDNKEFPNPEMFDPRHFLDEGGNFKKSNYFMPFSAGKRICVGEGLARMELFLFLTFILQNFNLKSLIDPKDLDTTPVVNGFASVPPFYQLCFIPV

Structure (SMILES) | inhibition at 20 min, 10 µM (CYP1A2) | inhibition at 20 min, 10 µM (CYP2C19) | AUC [1] | peak oral absorption concentration [1] | AUC [2] | oral absorption peak concentration [2] | bioavailability [3]
CCOc1cc2ncnc(Nc3ccc(Oc4ccn5ncnc5c4)c(C)c3)c2cc1NC(=O)/C=C/[C@H]1CCCN1C [Final product of Embodiment 22, (R,E)-N-(4-((4-([1,2,4]triazolo[1,5-a]pyridin-7-yloxy)-3-methylphenyl)amino)-7-ethoxyquinazolin-6-yl)-3-(1-methylpyrrolidin-2-yl)acrylamide] | 14% | 37% | 5190 ng·h/mL | 432.6 ng/mL | 5580 ng·h/mL | 506.5 ng/mL | –
CCOc1cc2ncnc(Nc3ccc(Oc4ccn5ncnc5c4)c(C)c3)c2cc1NC(=O)/C(F)=C/[C@H]1CCCN1C [Final product of Embodiment 45] | 8% | 11% | – | – | – | – | 71.3%
